Source: ChEMBL document CHEMBL1137710, “Synthesis and in vitro antitumor activity of new quinoxaline derivatives” (2009)

Assays:
Type in all cases: functional
[1] = test system: MCF7; test: Anticancer activity against human MCF7 cells assessed as cell growth at 100 uM after 48 hrs by sulforhodamine B assay; conditions: MCF7, 48 h, read-out: Activity
[2] = test system: SF-268; test: Anticancer activity against human SF268 cells assessed as cell growth at 100 uM after 48 hrs by sulforhodamine B assay; conditions: SF-268, 48 h, read-out: Activity
[3] = test system: NCI-H460; test: Anticancer activity against human NCI-H460 cells assessed as cell growth at 100 uM after 48 hrs by sulforhodamine B assay; conditions: NCI-H460, 48 h, read-out: Activity

Row | Structure (SMILES) | growth at 100 µM [1] [%] | growth at 100 µM [2] [%] | growth at 100 µM [3] [%]
1 | COc1ccc(Sc2nc3cc(N)cc(N)c3nc2-c2ccccc2)cc1OC | 121 | 136 | 119
2 | COc1ccc(Oc2nc3cc(N)cc(N)c3nc2-c2ccccc2)cc1OC | 117 | 131 | 118
